From patent US5641500A, “Use of purinergic receptor agonists as antineoplastic agents” (The United States of America as represented by the …, priority 1995, dated 1997)

Assays:
[1] = test system: PC-3 prostate carcinoma cells; experiment: Nude mouse tumorigenesis of PC-3 cells pretreated in vitro; type: in vivo, athymic mice; conditions: cells pretreated in vitro 100 uM 3 times over 7 days, 1.5×10^6 cells/mouse s.c., FIG. 13
Experimental: PC-3 prostate carcinoma cells were treated in vitro with the purinergic agonists ATP or AMP-PNP, 100 uM 3 times over 7 days, and their growth in athymic mice was compared to that in untreated control cells. Cells were injected subcutaneously at an inoculum of 1.5×10^6 cells/mouse in 0.2 ml phosphate buffered saline, and the presence of palpable tumors was determined on day 22.
The cells were treated in vitro for 7 days, and then an equal number of untreated control cells, ATP treated, or AMP-PNP treated cells were inoculated subcutaneously into nude (athymic) mice.

[2] = test system: PC-3 prostate carcinoma cells; experiment: Cell growth (hemacytometer viable cell counts) and 3H-thymidine incorporation in PC-3; type: cell-based, human; conditions: for inhibition of cell growth: PC-3, 5 days, versus untreated control cells, FIG. 12; for 3H-thymidine incorporation cpm / 3H-thymidine incorporation cpm/cell / cell # (× 10-4): PC-3, 7 days
Experimental: (§1) The human prostate carcinoma cell lines PC3, DU145 (American Type Culture Collection) and PC-3M (a gift of Dr. G. Weiss, Surgery Branch, NCI) were maintained in Ham's F12K (PC3), Eagle's Modified Essential Medium (DU145), or RPMI 1640 (PC3M), supplemented with 7% (PC3) or 10% (DU145 and PC3M) fetal bovine serum, 100 units/ml penicillin, […], and […]. The cells were grown in a mixture of 5% CO2, 95% air at 37° C., and propagated by typsinization and dilution into fresh medium. Cells were typically used for calcium determination two days after dilution into fresh medium.
(§2) Cell growth was studied by hemacytometer counts of viable cells after incubation of cells with purinergic agonists in vitro. Viability was determined by trypan blue exclusion. In addition, growth studies were performed by ^3 H-thymidine incorporation. […] The induction of DNA strand breaks in the setting of cell growth inhibition is characteristic of programmed cell death or apoptosis.
(§3) Since purinergic receptor agonists induce massive mobilization of internal Ca^2+ stores and prolong this response through the opening of plasma membrane Ca^2+ channels, the effect of purinergic receptor stimulation on the growth of androgen-independent cells was examined. The cell lines DU145, PC-3, and PC-3M were incubated in the presence of ATP or the nonhydrolysable ATP analog adenylylimidodiphosphate (AMP-PNP), and cell growth was determined by hemacytometer counts of viable cells, with viability determined by trypan blue exclusion.
(§4) To further document the purinergic agonist-induced growth inhibition, thymidine incorporation studies were performed in conjunction with hemacytometer cell counts, and the thymidine incorporation per cell of ATP and AMP-PNP treated PC-3 and PC-3M cells was determined. These studies, shown in Table 2, confirmed that purinergic agonists inhibit the growth of androgen-independent prostate carcinoma cells. […] It is of interest that normal prostate cells die in response to androgen withdrawal in a process called apoptosis, and this cell death resembles the cell death shown after treatment with purinergic agonists in two respects. Firstly, the death of normal prostate cells after androgen withdrawal is dependent on a rise in intracellular Ca^2+. Secondly, the death of normal prostate cells after androgen withdrawal is mediated by an increase in the number of DNA strand breaks. Thus, this technique should be therapeutically useful for circumventing the absence of androgen receptors on advanced prostate carcinoma cells. The results presented here represent the discovery of a surface receptor specifically expressed on advanced prostatic adenocarcinoma which, when activated, induces a mode of cell death that apparently utilizes that same intracellular pathway as the death that normal prostate cells undergo in response to the withdrawal of androgen.

[3] = test system: PC-3M prostate carcinoma cells; experiment: Cell growth (hemacytometer viable cell counts) and 3H-thymidine incorporation in PC-3M; type: cell-based, human; conditions: 5 days
Experimental: as §1, §2, §3, §4

[4] = test system: DU145 cells; experiment: Cell growth (hemacytometer viable cell counts) in DU145; type: cell-based, human; conditions: DU145, 5 days, 100 μM, versus untreated controls, FIG. 11
Experimental: as §1
Cell growth was studied by hemacytometer counts of viable cells after incubation of cells with purinergic agonists in vitro. Viability was determined by trypan blue exclusion. In addition, growth studies were performed by ^3 H-thymidine incorporation. […]
as §3

[5] = test system: DU145 prostate carcinoma purinergic receptor; experiment: ATP/purine-stimulated Ca2+ response (quin2 fluorescence) in DU145; type: cell-based, human; conditions: for relative agonist potency/activity in inducing a Ca2+ transient: DU145, FIG. 6
Experimental: (§5) The human prostate carcinoma cell lines PC3, DU145 (American Type Culture Collection) and PC-3M (a gift of Dr. G. Weiss, Surgery Branch, NCI) were maintained in Ham's F12K (PC3), Eagle's Modified Essential Medium (DU145), or RPMI 1640 (PC3M), supplemented with 7% (PC3) or 10% (DU145 and PC3M) fetal bovine serum, 100 units/ml penicillin, 100 mg/ml streptomycin, and 300 mg/ml glutamine. The cells were grown in a mixture of 5% CO2, 95% air at 37° C., and propagated by typsinization and dilution into fresh medium. Cells were typically used for calcium determination two days after dilution into fresh medium.
(§6) [Ca^2+ ]i was determined by the quin2 technique of Tsien et al. (J. Cell Biol. 94:325-334, 1982) with some modifications. Briefly, cells from confluent cultures were harvested by treatment with trypsin-EDTA. Cells were washed with calcium medium (1 mM CaCl2, 1 mM KCl, 1 mM MgCl2, 140 mM NaCl, 20 mM HEPES, 5 mM dextrose, pH 7.4), and loaded with 20 mM quin2/AM (Molecular Probes, Eugene, Oreg.) in calcium medium at 37° C. for 30 minutes, then diluted 5-fold with the same medium and incubated at 37° C. for 60 minutes. After loading, cells were washed and resuspended in the calcium media at 1.5-2.0×10^6 cells/ml and kept on ice until use. Cell viability was determined by trypan blue exclusion and was usually >95%. For measurement of fluorescence, 2 ml of cell suspension was transferred to a cuvette maintained at 37° C. Fluorescence was measured in a Perkin-Elmer 650-10S fluorescence spectrophotometer, with an excitation wavelength of 336 nm, slit 5 nm, and an emission wavelength of 493 nm, slit 5 nm. [Ca^2+ ]i was estimated after calibration with Triton X-100 and EGTA, assuming a dissociation constant of the Ca^2+ -quin2 complex of 115 nM.

[6] = test system: PC-3 prostate carcinoma purinergic receptor; experiment: ATP/purine-stimulated Ca2+ response (quin2 fluorescence) in PC-3; type: cell-based, human; conditions: for relative agonist potency/activity in inducing a Ca2+ transient: PC-3, FIG. 7
Experimental: as §5, §6

[7] = test system: purinergic receptor on PC-3M prostate carcinoma cells; experiment: Purine-stimulated Ca2+ response (quin2 fluorescence) in PC-3M; type: cell-based, human; conditions: FIG. 8
Experimental: as §5, §6

[8] = test system: phospholipase C; experiment: ATP-stimulated inositol phosphate production (HPLC of 3H-inositol phosphates) in PC-3; type: cell-based, human
Experimental: Cells were incubated with ^3 H-inositol (6 μCi/ml) in inositol-free RPMI 1640 medium (NIH Media Unit) without serum for 2 to 3 days at 37° C. under an atmosphere of 5% CO2, 95% air. Cells were detached by trypsinization, washed twice in phosphate buffered saline pH 7.4, resuspended in PBS with 10 mM LiCl, and maintained for 15 minutes at 37° C. After that, cells were washed twice with PBS plus 10 mM LiCl and resuspended in calcium medium plus 10 mM LiCl. The cell suspension was aliquoted into Eppendorf tubes, pre-warmed at 37° C., and treated with reagents for different times as indicated. Reactions were terminated by adding 100% trichloroacetic acid (TCA) to a final concentration of 10%. After centrifugation, the supernatants were removed, extracted twice with water-saturated ether to remove TCA, and stored at 4° C. until quantitative analysis of inositol phosphates by high pressure liquid chromatography.
Samples prepared as described above were applied to a Whatman Partisil 5 SAX column. Inositol phosphates were separated using an ammonium phosphate gradient (0.01M to 1.4M. pH 3.8, 1 ml/min flow rate) as described previously (Biochem. J. 255: 403-410, 1988). Radioactivity was measured by use of a Raytest radiodetector with a 2 ml flow cell and a ratio of 4:1 (v:v) of Monoflow 4 high salt scintillant (National Diagnostics); eluate at an efficiency of 17%. Values (counts/min) for each inositol phosphate were expressed as a percentage of ^3 H-phosphoinositides in the sample, permitting comparison among experiments.

[9] = test system: plasma membrane Ca^2+ channels; experiment: Effect of organic Ca2+ channel blockers on the ATP-stimulated Ca2+ transient in PC-3; type: cell-based, human; conditions: PC-3, FIG. 9

## Nc1ncnc2c1ncn2[C@@H]1O[C@H](COP(=O)(O)OP(=O)(O)NP(=O)(O)O)[C@@H](O)[C@H]1O [AMP-PNP, 5'adenylylimidodiphosphate]
[1]
  inhibition of tumorigenesis (palpable tumor): inhibition of PC-3 prostate carcinoma tumorigenesis
[2]; 100 μM
  inhibition of cell growth: inhibition of growth
  3H-thymidine incorporation cpm: 307 cpm
  3H-thymidine incorporation cpm/cell: 0.06 cpm/cell
  cell # (× 10-4): 0.5 × 10-4
[3]; 100 μM
  3H-thymidine incorporation cpm: 2790 cpm
  3H-thymidine incorporation cpm/cell: 0.14 cpm/cell
  cell # (× 10-4): 2.0 × 10-4
[4]
  inhibition of cell growth: inhibition of growth

## Nc1ncnc2c1ncn2[C@@H]1O[C@H](COP(=O)(O)OP(=O)(O)OP(=O)(O)O)[C@@H](O)[C@H]1O [ATP, adenosine triphosphate]
[1]
  inhibition of tumorigenesis (palpable tumor): inhibition of PC-3 prostate carcinoma tumorigenesis
[2]; 100 μM
  inhibition of cell growth: inhibition of growth
  3H-thymidine incorporation cpm: 2729 cpm
  3H-thymidine incorporation cpm/cell: 0.04 cpm/cell
  cell # (× 10-4): 7.5 × 10-4
[5]; DU145, 100 μM ATP, 13 experiments
  mean percent stimulation of Ca2+ response: 510.7%
[5]
  relative agonist potency/activity in inducing a Ca2+ transient: ATP>ADP>AMP>adenosine
[6]; PC-3, 100 μM ATP, 16 experiments
  mean percent stimulation of Ca2+ response: 443.3%
[6]; PC-3, FIG. 1
  Ca2+ mobilizing activity compared with other peptides and neurotransmitters: largest Ca^2+ response of the agonists tested
[6]
  relative agonist potency/activity in inducing a Ca2+ transient: ATP>ADP>AMP>adenosine
[7]
  relative agonist potency/activity in inducing a Ca2+ transient: ATP>ADP>AMP>adenosine
[8]; PC-3, 8 sec
  I(1,4,5)P3 % of total IP: 0.64 % of total IP
  I(1,4,5)P3 cpm: 1103 cpm
[8]; PC-3, 15 sec
  I(1,4,5)P3 % of total IP: 0.57 % of total IP
  I(1,4,5)P3 cpm: 971 cpm
[8]; PC-3, 30 sec
  I(1,4,5)P3 % of total IP: 0.78 % of total IP
  I(1,4,5)P3 cpm: 1361 cpm
[3]; 100 μM
  3H-thymidine incorporation cpm: 3307 cpm
  3H-thymidine incorporation cpm/cell: 0.11 cpm/cell
  cell # (× 10-4): 3.0 × 10-4
[4]
  inhibition of cell growth: inhibition of growth

## COc1ccc([C@@H]2Sc3ccccc3N(CCN(C)C)C(=O)[C@@H]2OC(C)=O)cc1 [diltiazem]
[9]
  inhibition of influx of extracellular Ca2+ caused by ATP stimulation: inhibitable

## Nc1ncnc2c1ncn2[C@@H]1O[C@H](COP(=O)(O)OP(=O)(O)O)[C@@H](O)[C@H]1O [ADP, adenosine diphosphate]
[5]
  relative agonist potency/activity in inducing a Ca2+ transient: ATP>ADP>AMP>adenosine
[6]
  relative agonist potency/activity in inducing a Ca2+ transient: ATP>ADP>AMP>adenosine
[7]
  relative agonist potency/activity in inducing a Ca2+ transient: ATP>ADP>AMP>adenosine

## Nc1ncnc2c1ncn2[C@@H]1O[C@H](CO)[C@@H](O)[C@H]1O [adenosine]
[5]
  relative agonist potency/activity in inducing a Ca2+ transient: ATP>ADP>AMP>adenosine
[6]
  relative agonist potency/activity in inducing a Ca2+ transient: ATP>ADP>AMP>adenosine
[7]
  relative agonist potency/activity in inducing a Ca2+ transient: ATP>ADP>AMP>adenosine

## Nc1ncnc2c1ncn2[C@@H]1O[C@H](COP(=O)(O)O)[C@@H](O)[C@H]1O [AMP, adenosine monophosphate]
[5]
  relative agonist potency/activity in inducing a Ca2+ transient: ATP>ADP>AMP>adenosine
[6]
  relative agonist potency/activity in inducing a Ca2+ transient: ATP>ADP>AMP>adenosine
[7]
  relative agonist potency/activity in inducing a Ca2+ transient: ATP>ADP>AMP>adenosine

## COC(=O)C1=C(C)NC(C)=C(C(=O)OC)C1c1ccccc1[N+](=O)[O-] [nifedipine]
[9]
  inhibition of influx of extracellular Ca2+ caused by ATP stimulation: inhibitable

## COc1ccc(CCN(C)CCCC(C#N)(c2ccc(OC)c(OC)c2)C(C)C)cc1OC (stereo not shown) [verapamil]
[9]
  inhibition of influx of extracellular Ca2+ caused by ATP stimulation: inhibitable

## CCCC(=O)Nc1ncnc2c1ncn2[C@@H]1O[C@@H]2COP(=O)(O)O[C@H]2[C@H]1OC(=O)CCC [DbcAMP, reference compound]
[2]; DbcAMP concentration not given
  3H-thymidine incorporation cpm: 182 cpm
  3H-thymidine incorporation cpm/cell: 0.01 cpm/cell
  cell # (× 10-4): 1.5 × 10-4

## C[C@H](CCC(=O)O)C[C@H](C)C[C@H](C)C(=O)/C=C(\O)[C@H](C)C[C@H](C)C/C=C/[C@@H](C)[C@@H](O)[C@@H](C)[C@@H](O)C[C@@H]1CC[C@@](C)([C@H]2CC[C@@](C)([C@@H](C)O)O2)O1 [Ionomycin, ionomycin, reference compound]
[3]; 1 μM
  3H-thymidine incorporation cpm: 3920 cpm
  3H-thymidine incorporation cpm/cell: 0.39 cpm/cell
  cell # (× 10-4): 1.0 × 10-4

## COC(=O)C1=C(C)NC(C)=C(C(=O)OCCN(C)Cc2ccccc2)C1c1cccc([N+](=O)[O-])c1 (stereo not shown) [nicardipine]
[9]
  inhibition of influx of extracellular Ca2+ caused by ATP stimulation: inhibitable
